The text below walks through data of patent publication US20060100431A1, “Biologically active compounds” (Amura Therapeutics Limited, priority 2002, published 2006).

As usually defined, the Ki is the dissociation constant of the complex between target and ligand, obtained from inhibition or displacement.

Type in all cases: biochemical
The target of assay [1] is Wild-type cruzipain (Trypanosoma cruzi, UniProt P25779). Put plainly: Trypanosoma cruzi cruzipain peptidase activity assay (Ki). The note with it: read-out: Ki, inhibitors of cruzain and cruzipains. An outline of the steps:
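Native cruzipain from T. cruzi Dm28 epimastigotes, 2.5 nM, in 100 mM sodium phosphate pH 6.75 with 1 mM EDTA and 10 mM L-cysteine, 25 °C, DMSO <1%. Rates taken from continuous fluorogenic substrate read; Ki by regression assuming reversible pure-competitive inhibition.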

The target of assay [2] is T1, Bovine cathepsin S (Bos taurus, UniProt P25326).
T1 construct: purchased CN Biosciences
Description: Cathepsin S peptidase activity assay, bovine enzyme (Ki). The note with it: species of cathepsin S not given; read-out: Ki, inhibitors of cathepsin S. As for the experimental part:
Unless otherwise stated, all general chemicals and biochemicals were purchased from either the Sigma Chemical Company, Poole, Dorset, U.K or from Fisher Scientific UK, Loughborough, Leicestershire, U.K. Absorbance assays were carried out in flat-bottomed 96-well plates (Spectra; Greiner Bio-One Ltd., Stonehouse, Gloucestershire, U.K.) using a SpectraMax PLUS384 plate reader (Molecular Devices, Crawley, U.K.). Fluorescence high throughput assays were carried out in either 384-well microtitre plates (Corning Costar 3705 plates, Fisher Scientific) or 96-well ‘U’ bottomed Microfluor W1 microtitre plates (Thermo Labsystems, Ashford, Middlesex, U.K.). Fluorescence assays were monitored using a SpectraMax Gemini fluorescence plate reader (Molecular Devices). For substrates employing either a 7-amino-4-methylcoumarin (AMC) or a 7-amino-4-trifluoromethylcoumarin (AFC) fluorophore, assays were monitored at an excitation wavelength of 365 nm and an emission wavelength of 450 nm and the fluorescence plate reader calibrated with AMC. For substrates employing a 3-amino-benzoyl (Abz) fluorophore, assays were monitored at an excitation wavelength of 310 nm and an emission wavelength of 445 nm; the fluorescence plate reader calibrated with 3-amino-benzamide (Fluka). Unless otherwise indicated, all the peptidase substrates were purchased from Bachem UK, St Helens, Merseyside, UK. Substrates utilizing fluorescence resonance energy transfer methodology (i.e. FRET-based substrates) were synthesized at Incenta Limited using published methods (Atherton & Sheppard, Solid Phase Peptide Synthesis, IRL Press, Oxford, U.K, 1989) and employed Abz (2-aminobenzoyl) as the fluorescence donor and 3-nitro-tyrosine [Tyr(NO2)] as the fluorescence quencher (Meldal, M. and Breddam, K., Anal. Biochem, 195, 141-147, 1991). Hydroxyethylpiperazine ethanesulfonate (HEPES), tris-hydroxylmethyl aminomethane (tris) base, bis-tris-propane and all the biological detergents (e.g. CHAPS, zwittergents, etc.) were purchased from CN Biosciences UK, Beeston, Nottinghamshire, U.K. Glycerol was purchased from Amersham Pharmacia Biotech, Little Chalfont, Buckinghamshire, U.K. Stock solutions of substrate or inhibitor were made up to 10 mM in 100% dimethylsulfoxide (DMSO) (Rathburns, Glasgow, U.K.) and diluted as appropriately required. In all cases the DMSO concentration in the assays was maintained at less than 1% (vol./vol.).
Assay protocols were based on literature precedent (Table 4; Barrett, A. J., Rawlings, N. D. and Woessner, J. F., 1998, Handbook of Proteolytic Enzymes, Academic Press, London and references therein) and modified as required to suit local assay protocols. Enzyme was added as required to initiate the reaction and the activity, as judged by the change in fluorescence upon conversion of substrate to product, was monitored over time. All assays were carried out at 25±1° C.
Bovine cathepsin S, human cathepsin L, human cathepsin H and human cathepsin B were obtained from CN Biosciences. Recombinant human cathepsin S, human cathepsin K and human cathepsin X were obtained from Dr. Boris Turk (Josef Stefan Institute, Ljubljana, Slovenia). Unless otherwise stated, all peptidase activity assays were carried out in 10 mM bis-tris-propane (BTP), pH 6.5 containing 1 mM EDTA, 5 mM 2-mercaptoethanol and 1 mM CaCl2. Human cathepsin H activity assays were carried out in 10 mM BTP pH 6.5, 142 mM NaCl2, 1 mM CaCl2, 1 mM EDTA, 1 mM DTT, 0.035 mM Zwittergent 3-16. Human cathepsin K assays were carried out in 100 mM sodium acetate; pH 5.5 containing 20 mM L-cysteine and 1 mM EDTA (Bossard, M. J., et. al., J. Biol. Chem., 21, 12517-12524, 1996). Human cathepsin X assays were carried out in 100 mM sodium acetate; pH 5.5 containing 20 mM L-cysteine; 0.05% (w/v) Brij 35 and 1 mM EDTA (Santamaria, I., et. al., J. Biol. Chem., 273, 16816-16823, 1998; Klemencic, J, et al., Eur. J. Biochem., 267, 5404-5412, 2000).

Assay [3] deals with T2, CPB2.8ΔCTE (Leishmania mexicana, UniProt P36400).
T2 construct: Wild-type recombinant CPB without the C-terminal extention (i.e. CPB2.8ΔCTE); Dr. Jeremy Mottram (Wellcome Centre for Molecular Parasitology, University of Glasgow)
Description: Leishmania mexicana cysteine protease B (CPB) peptidase activity assay (Ki). As to conditions: Ki, inhibitors of Leismania mexicana CPB protease. In outline: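 Recombinant CPB2.8ΔCTE (0.25 nM) was assayed in 100 mM sodium acetate pH 5.5 with 1 mM EDTA, 200 mM NaCl and 10 mM DTT at 25 °C, DMSO <1%, enzyme added to start. Rates were taken from continuous fluorescence slopes; apparent Ki was fitted assuming reversible, pure-competitive inhibition.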

Where only a bound is given, the exact number is not on record here.

Wild-type cruzipain, sequence (P25779 whole entry): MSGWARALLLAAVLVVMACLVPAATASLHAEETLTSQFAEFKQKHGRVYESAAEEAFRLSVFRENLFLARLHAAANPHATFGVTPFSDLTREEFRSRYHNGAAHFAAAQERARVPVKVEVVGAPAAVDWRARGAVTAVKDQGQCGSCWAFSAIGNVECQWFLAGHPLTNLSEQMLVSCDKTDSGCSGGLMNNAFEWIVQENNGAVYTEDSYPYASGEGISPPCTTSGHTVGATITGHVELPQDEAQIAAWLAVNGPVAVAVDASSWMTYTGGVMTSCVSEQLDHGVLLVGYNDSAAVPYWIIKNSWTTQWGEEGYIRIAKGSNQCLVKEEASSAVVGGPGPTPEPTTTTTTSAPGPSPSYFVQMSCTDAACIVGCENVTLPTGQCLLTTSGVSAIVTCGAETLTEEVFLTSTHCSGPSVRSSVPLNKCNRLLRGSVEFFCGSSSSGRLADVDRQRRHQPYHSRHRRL
T1 sequence (P25326 115-331): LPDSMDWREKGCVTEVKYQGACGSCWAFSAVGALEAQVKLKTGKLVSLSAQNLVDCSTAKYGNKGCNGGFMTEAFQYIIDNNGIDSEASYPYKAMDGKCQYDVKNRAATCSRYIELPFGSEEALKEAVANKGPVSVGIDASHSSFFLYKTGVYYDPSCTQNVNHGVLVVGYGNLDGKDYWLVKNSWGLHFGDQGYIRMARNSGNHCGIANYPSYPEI
T2 sequence (P36400 126-343, stated change not applied): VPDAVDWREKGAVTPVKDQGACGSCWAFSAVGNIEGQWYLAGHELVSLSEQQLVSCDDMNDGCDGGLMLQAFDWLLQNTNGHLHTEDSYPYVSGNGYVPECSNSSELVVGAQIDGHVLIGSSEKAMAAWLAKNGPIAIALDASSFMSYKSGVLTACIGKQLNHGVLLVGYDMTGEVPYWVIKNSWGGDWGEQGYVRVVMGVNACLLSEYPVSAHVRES

On to `CS(=O)(=O)c1ccccc1C(=O)N1CC(=O)[C@@H]2[C@H]1CCN2C(=O)[C@H](Cc1ccc(O)cc1)NC(=O)c1cccc(Br)c1` [Example 303, (3aR,6aS)-3-Bromo-N-{(1S)-1-(4-hydroxy-benzyl)-2-[4-(2-methanesulfonyl-benzoyl)-6-oxo-hexahydro-pyrrolo[3,2-b]pyrrole-1-yl]-2-oxo-ethyl}-benzamide], for which the Ki in assay [1] and in assay [2] was less than 5 µM throughout.

Turning to `CC(C)C[C@H](NC(=O)c1cnc2ccccc2n1)C(=O)N1CC[C@@H]2[C@H]1C(=O)CN2C(=O)c1cccnc1` [Example 19, (3aR,6aS)-Quinoxaline-2-carboxylic acid {(1S)-3-methyl-1-[6-oxo-4-(pyridine-3-carbonyl)-hexahydro-pyrrolo[3,2-b]pyrrole-1-carbonyl]-butyl}-amide], the Ki in assay [1] and in assay [2] was less than 5 µM in each case.

As to `CC(C)C[C@H](NC(=O)c1cccc(Oc2ccccc2)c1)C(=O)N1CC[C@@H]2[C@H]1C(=O)CN2C(=O)c1ccccc1` [Example 13, (3aR,6aS)-N-[(1S)-1-(4-Benzoyl-6-oxo-hexahydro-pyrrolo[3,2-b]pyrrole-1-carbonyl)-3-methyl-butyl]-3-phenoxy-benzamide], the Ki in assay [1], in assay [2] and in assay [3] was less than 5 µM in each case.

Take `O=C(N[C@@H](Cc1ccc(O)cc1)C(=O)N1CC[C@@H]2[C@H]1C(=O)CN2C(=O)c1ccccc1)c1cccc(Cl)c1` [Example 334, (3aR,6aS)-N-[(1S)-2-(4-Benzoyl-6-oxo-hexahydro-pyrrolo[3,2-b]pyrrol-1-yl)-1-(4-hydroxy-benzyl)-2-oxo-ethyl]-3-chloro-benzamide]: the Ki in assay [1] and in assay [2] was less than 5 µM in each case.

Turning to `CC(C)C[C@H](NC(=O)c1cccc(Br)c1)C(=O)N1CC[C@@H]2[C@H]1C(=O)CN2C(=O)c1ccccc1` [Example 340, (3aR,6aS)-N-[(1S)-1-(4-Benzoyl-6-oxo-hexahydro-pyrrolo[3,2-b]pyrrole-1-carbonyl)-3-methyl-butyl]-3-bromo-benzamide], the Ki in assay [2] is less than 5 µM.

`O=C(N[C@@H](Cc1ccc(O)cc1)C(=O)N1CC[C@@H]2[C@H]1C(=O)CN2C(=O)c1ccccc1)c1cccc(F)c1` [Example 335, (3aR,6aS)-N-[(1S)-2-(4-Benzoyl-6-oxo-hexahydro-pyrrolo[3,2-b]pyrrol-1-yl)-1-(4-hydroxy-benzyl)-2-oxo-ethyl]-3-fluoro-benzamide]: the Ki in assay [1] and in assay [2] was less than 5 µM each time.

In the case of `CC(C)C[C@H](NC(=O)c1cccc(Oc2ccccc2)c1)C(=O)N1CC[C@@H]2[C@H]1C(=O)CN2C(=O)c1cccnc1` [Example 20, (3aR,6aS)-N-{(1S)-3-Methyl-1-[6-oxo-4-(pyridine-3-carbonyl)-hexahydro-pyrrolo[3,2-b]pyrrole-1-carbonyl]-butyl}-3-phenoxy-benzamide], the Ki in assay [1], in assay [2] and in assay [3] was less than 5 µM throughout.

For `O=C(N[C@@H](CC1CC1)C(=O)N1CC[C@@H]2[C@H]1C(=O)CN2C(=O)c1ccccc1)c1ccsc1` [Example 187, (3aR,6aS)-Thiophene-3-carboxylic acid [(1S)-2-(4-benzoyl-6-oxo-hexahydro-pyrrolo[3,2-b]pyrrole-1-yl)-1-cyclopropylmethyl-2-oxo-ethyl]-amide], the Ki in assay [2] is less than 5 µM.

For `CC(C)C[C@H](NC(=O)c1cccc(CN)c1)C(=O)N1CC[C@@H]2[C@H]1C(=O)CN2S(=O)(=O)c1ccccc1` [Example 123, (3aR,6aS)-3-Aminomethyl-N-[(1S)-1-(4-benzenesulfonyl-6-oxo-hexahydro-pyrrolo[3,2-b]pyrrole-1-carbonyl)-3-methyl-butyl]-benzamide], the Ki in assay [2] is less than 5 µM.

Turning to `O=C(N[C@@H](Cc1ccc(O)cc1)C(=O)N1CC[C@@H]2[C@H]1C(=O)CN2C(=O)c1ccccc1)c1ccc2ncsc2c1` [Example 317, (3aR,6aS)-Benzothiazole-6-carboxylic acid [(1S)-2-(4-benzoyl-6-oxo-hexahydro-pyrrolo[3,2-b]pyrrole-1-yl)-1-(4-hydroxy-benzyl)-2-oxo-ethyl]-amide], the Ki in assay [1] and in assay [2] was less than 5 µM in each case.
